In ChEMBL document CHEMBL5113469, “Synthesis and biological evaluation of a tumor-selective degrader of PARP1” (Bioorg Med Chem, 2022):
Calls of active or inactive are those of the source. The rule behind the calls is not given here.

Legend:
[1] = molecular target: T1, Protein cereblon/Poly [ADP-ribose] polymerase 1 (Homo sapiens, UniProt P09874+Q96SW2); experiment: PROTAC activity at CRBN/PARP1 in human L02 cells assessed as induction of PARP1 degradation incubated for 24 hrs by western blot analysis; format: cell-based
Target sequence in this assay (P09874 whole entry): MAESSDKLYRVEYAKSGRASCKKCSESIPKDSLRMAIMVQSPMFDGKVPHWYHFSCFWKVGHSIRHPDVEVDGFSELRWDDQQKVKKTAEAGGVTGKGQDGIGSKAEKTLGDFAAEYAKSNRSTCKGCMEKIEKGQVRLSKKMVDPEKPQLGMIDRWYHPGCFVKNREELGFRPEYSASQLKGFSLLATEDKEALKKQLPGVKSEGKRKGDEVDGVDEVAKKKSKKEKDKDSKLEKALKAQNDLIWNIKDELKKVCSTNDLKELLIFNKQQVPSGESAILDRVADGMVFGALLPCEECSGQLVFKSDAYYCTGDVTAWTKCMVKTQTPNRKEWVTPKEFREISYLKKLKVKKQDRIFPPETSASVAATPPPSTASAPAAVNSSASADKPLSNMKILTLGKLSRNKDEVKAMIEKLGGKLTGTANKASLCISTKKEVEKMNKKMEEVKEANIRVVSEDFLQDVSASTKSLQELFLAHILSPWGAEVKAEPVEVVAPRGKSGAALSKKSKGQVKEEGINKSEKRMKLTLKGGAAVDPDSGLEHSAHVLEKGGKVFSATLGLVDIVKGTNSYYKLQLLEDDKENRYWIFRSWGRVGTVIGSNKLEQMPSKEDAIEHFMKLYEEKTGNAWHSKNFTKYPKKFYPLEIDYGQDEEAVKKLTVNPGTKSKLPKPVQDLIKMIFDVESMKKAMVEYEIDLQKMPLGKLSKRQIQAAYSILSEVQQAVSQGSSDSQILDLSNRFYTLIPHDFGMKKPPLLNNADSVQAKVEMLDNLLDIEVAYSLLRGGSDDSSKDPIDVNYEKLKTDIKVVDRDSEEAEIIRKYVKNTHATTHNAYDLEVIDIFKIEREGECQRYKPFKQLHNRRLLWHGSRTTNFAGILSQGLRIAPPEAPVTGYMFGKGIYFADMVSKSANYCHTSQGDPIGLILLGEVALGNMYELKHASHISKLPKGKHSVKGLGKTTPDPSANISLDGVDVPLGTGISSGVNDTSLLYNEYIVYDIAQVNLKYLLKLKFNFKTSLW
Target sequence in this assay (Q96SW2 whole entry): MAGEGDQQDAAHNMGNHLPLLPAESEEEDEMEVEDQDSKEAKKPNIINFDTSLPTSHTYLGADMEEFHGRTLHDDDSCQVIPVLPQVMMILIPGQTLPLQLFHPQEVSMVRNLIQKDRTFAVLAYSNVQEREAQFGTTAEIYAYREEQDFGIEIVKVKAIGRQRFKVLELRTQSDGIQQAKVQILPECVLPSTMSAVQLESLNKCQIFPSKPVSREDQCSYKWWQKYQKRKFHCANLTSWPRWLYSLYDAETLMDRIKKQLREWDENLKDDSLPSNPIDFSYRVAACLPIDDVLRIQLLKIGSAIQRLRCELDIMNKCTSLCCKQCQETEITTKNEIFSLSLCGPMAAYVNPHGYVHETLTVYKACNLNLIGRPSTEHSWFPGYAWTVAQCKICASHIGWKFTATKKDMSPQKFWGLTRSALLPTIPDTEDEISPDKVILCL

[2] = molecular target: Poly [ADP-ribose] polymerase 1 (Homo sapiens, UniProt P09874); experiment: Binding affinity to PARP1 (unknown origin)
[3] = system: MDA-MB-231; experiment: Induction of cell cycle arrest in human MDA-MB-231 cells assessed as accumulation at G0/G1 phase at 0.625 uM incubated for 24 hrs by propidium iodide staining based flow cytometry analysis (reference value: 32.62 %); format: functional
[4] = system: MDA-MB-231; experiment: Induction of cell morphological changes in human MDA-MB-231 at 1 uM incubated for 24 hrs by DAPI and Rhodamine staining based immunofluorescence assay; format: functional
[5] = system: MV4-11; experiment: Antiproliferative activity against human MV4-11 cells assessed as cell growth inhibition incubated for 5 days by MTT assay; format: functional, cell-based; conditions: time 5.0 day
[6] = system: MDA-MB-231; experiment: Induction of cell cycle arrest in human MDA-MB-231 cells assessed as accumulation at S phase at 1.25 uM incubated for 24 hrs by propidium iodide staining based flow cytometry analysis (reference value: 37.88 %); format: functional
[7] = system: MDA-MB-231; experiment: Antiproliferative activity against human MDA-MB-231 cells assessed as colony growth inhibition at 0.625 to 10 uM incubated for 14 days by MTT assay; format: functional, cell-based; conditions: dose 0.625-10 µM, time 14.0 day, DDE = dose-dependent effect
[8] = system: MDA-MB-231; experiment: Induction of cell cycle arrest in human MDA-MB-231 cells assessed as accumulation at G0/G1 phase at 1.25 uM incubated for 24 hrs by propidium iodide staining based flow cytometry analysis (reference value: 32.62 %); format: functional
[9] = system: MDA-MB-436; experiment: Antiproliferative activity against human MDA-MB-436 cells assessed as cell growth inhibition incubated for 5 days by MTT assay; format: functional, cell-based; conditions: MDA-MB-436, 120 h
[10] = system: MDA-MB-231; experiment: Induction of cell cycle arrest in human MDA-MB-231 cells assessed as accumulation at S phase at 2.5 uM incubated for 24 hrs by propidium iodide staining based flow cytometry analysis (reference value: 37.88 %); format: functional
[11] = system: MDA-MB-231; experiment: Induction of cell cycle arrest in human MDA-MB-231 cells assessed as accumulation at S phase at 0.312 uM incubated for 24 hrs by propidium iodide staining based flow cytometry analysis (reference value: 37.88 %); format: functional
[12] = system: NCI-H2228; experiment: Antiproliferative activity against human NCI-H2228 cells assessed as cell growth inhibition incubated for 5 days by MTT assay; format: functional, cell-based; conditions: time 5.0 day
[13] = system: MDA-MB-231; experiment: Induction of cell cycle arrest in human MDA-MB-231 cells assessed as accumulation at G0/G1 phase at 5 uM incubated for 24 hrs by propidium iodide staining based flow cytometry analysis (reference value: 32.62 %); format: functional
[14] = system: HeLa; experiment: Antiproliferative activity against human HeLa cells assessed as cell growth inhibition incubated for 5 days by MTT assay; format: functional, cell-based; conditions: time 5.0 day
[15] = system: NCI-H3122; experiment: Antiproliferative activity against human NCI-H3122 cells assessed as cell growth inhibition incubated for 5 days by MTT assay; format: functional, cell-based; conditions: time 5.0 day
[16] = molecular target: T1, Protein cereblon/Poly [ADP-ribose] polymerase 1; experiment: PROTAC activity at CRBN/PARP1 in human MDA-MB-231 cells assessed as induction of PARP1 degradation incubated for 24 hrs by western blot analysis; format: cell-based
Target sequence in this assay (P09874 whole entry): as the sequence (P09874 whole entry) above
Target sequence in this assay (Q96SW2 whole entry): as the sequence (Q96SW2 whole entry) above

[17] = system: MDA-MB-231; experiment: Induction of cell cycle arrest in human MDA-MB-231 cells assessed as accumulation at G2/M phase at 2.5 uM incubated for 24 hrs by propidium iodide staining based flow cytometry analysis (reference value: 27.14 %); format: functional
[18] = molecular target: T1, Protein cereblon/Poly [ADP-ribose] polymerase 1; experiment: PROTAC activity at CRBN/PARP1 in human MDA-MB-231 cells assessed as induction of PARP1 degradation at 1 uM incubated for 24 hrs by western blot analysis; format: cell-based
Target sequence in this assay (P09874 2-1014 limits assumed): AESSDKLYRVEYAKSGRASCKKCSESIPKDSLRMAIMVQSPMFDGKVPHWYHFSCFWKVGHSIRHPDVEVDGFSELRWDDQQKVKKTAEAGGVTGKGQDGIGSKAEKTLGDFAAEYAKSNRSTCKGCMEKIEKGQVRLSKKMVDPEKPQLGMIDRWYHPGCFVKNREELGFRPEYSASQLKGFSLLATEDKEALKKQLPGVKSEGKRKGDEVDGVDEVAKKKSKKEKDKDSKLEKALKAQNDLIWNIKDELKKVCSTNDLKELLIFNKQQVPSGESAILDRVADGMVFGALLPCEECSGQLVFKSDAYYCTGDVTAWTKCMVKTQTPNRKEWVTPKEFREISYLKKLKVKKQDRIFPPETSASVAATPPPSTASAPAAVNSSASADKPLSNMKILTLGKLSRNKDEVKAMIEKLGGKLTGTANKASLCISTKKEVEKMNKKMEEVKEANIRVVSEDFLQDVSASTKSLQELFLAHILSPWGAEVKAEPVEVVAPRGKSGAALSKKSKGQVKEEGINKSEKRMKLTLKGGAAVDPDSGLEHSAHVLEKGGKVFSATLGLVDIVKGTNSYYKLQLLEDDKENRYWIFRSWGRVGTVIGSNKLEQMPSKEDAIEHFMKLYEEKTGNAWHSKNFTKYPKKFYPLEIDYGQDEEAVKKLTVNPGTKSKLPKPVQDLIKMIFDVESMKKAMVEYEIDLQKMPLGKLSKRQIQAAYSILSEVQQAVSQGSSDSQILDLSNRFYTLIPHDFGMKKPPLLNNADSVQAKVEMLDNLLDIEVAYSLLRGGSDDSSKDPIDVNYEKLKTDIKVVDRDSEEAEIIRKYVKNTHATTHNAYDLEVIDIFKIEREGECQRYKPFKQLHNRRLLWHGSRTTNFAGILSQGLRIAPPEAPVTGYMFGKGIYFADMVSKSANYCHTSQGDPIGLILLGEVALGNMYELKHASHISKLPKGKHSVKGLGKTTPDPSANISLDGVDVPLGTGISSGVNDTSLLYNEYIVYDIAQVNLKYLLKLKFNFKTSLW
Target sequence in this assay (Q96SW2 whole entry partner): as the sequence (Q96SW2 whole entry) above

[19] = system: MDA-MB-231; experiment: Induction of cell cycle arrest in human MDA-MB-231 cells assessed as accumulation at G2/M phase at 5 uM incubated for 24 hrs by propidium iodide staining based flow cytometry analysis (reference value: 27.14 %); format: functional
[20] = system: SW620/5-FU; experiment: Antiproliferative activity against human SW620/5-FU cells assessed as cell growth inhibition incubated for 5 days by MTT assay; format: functional, cell-based; conditions: time 5.0 day
[21] = system: HepG2; experiment: Antiproliferative activity against human HepG2 cells assessed as cell growth inhibition incubated for 5 days by MTT assay; format: functional, cell-based; conditions: time 5.0 day
[22] = system: L02; experiment: Antiproliferative activity against human L02 cells assessed as cell growth inhibition incubated for 5 days by MTT assay; format: toxicity, cell-based; conditions: l02, 120 h, time 5 day
[23] = system: MDA-MB-231; experiment: Antiproliferative activity against human MDA-MB-231 cells assessed as cell growth inhibition incubated for 5 days by MTT assay; format: functional, cell-based; conditions: MDA-MB-231, 120 h
[24] = system: MDA-MB-231; experiment: Induction of cell cycle arrest in human MDA-MB-231 cells assessed as accumulation at S phase at 0.625 uM incubated for 24 hrs by propidium iodide staining based flow cytometry analysis (reference value: 37.88 %); format: functional
[25] = system: MDA-MB-231; experiment: Induction of cell cycle arrest in human MDA-MB-231 cells assessed as accumulation at G2/M phase at 0.312 uM incubated for 24 hrs by propidium iodide staining based flow cytometry analysis (reference value: 27.14 %); format: functional
[26] = system: MDA-MB-468; experiment: Antiproliferative activity against human MDA-MB-468 cells assessed as cell growth inhibition incubated for 5 days by MTT assay; format: functional, cell-based; conditions: MDA-MB-468, 120 h
[27] = system: MDA-MB-231; experiment: Induction of cell cycle arrest in human MDA-MB-231 cells assessed as accumulation at G2/M phase at 0.625 uM incubated for 24 hrs by propidium iodide staining based flow cytometry analysis (reference value: 27.14 %); format: functional
[28] = system: MDA-MB-231; experiment: Induction of cell cycle arrest in human MDA-MB-231 cells assessed as accumulation at S phase at 5 uM incubated for 24 hrs by propidium iodide staining based flow cytometry analysis (reference value: 37.88 %); format: functional
[29] = system: CAPAN-1; experiment: Antiproliferative activity against human CAPAN-1 cells assessed as cell growth inhibition incubated for 5 days by MTT assay; format: functional, cell-based; conditions: CAPAN-1, 120 h
[30] = system: MDA-MB-231; experiment: Induction of cell cycle arrest in human MDA-MB-231 cells assessed as accumulation at G0/G1 phase at 2.5 uM incubated for 24 hrs by propidium iodide staining based flow cytometry analysis (reference value: 32.62 %); format: functional
[31] = system: MDA-MB-231; experiment: Induction of cell cycle arrest in human MDA-MB-231 cells assessed as accumulation at G2/M phase at 1.25 uM incubated for 24 hrs by propidium iodide staining based flow cytometry analysis (reference value: 27.14 %); format: functional
[32] = system: MDA-MB-231; experiment: Induction of cell cycle arrest in human MDA-MB-231 cells assessed as accumulation at G0/G1 phase at 0.312 uM incubated for 24 hrs by propidium iodide staining based flow cytometry analysis (reference value: 32.62 %); format: functional
[33] = molecular target: T1, Protein cereblon/Poly [ADP-ribose] polymerase 1; experiment: PROTAC activity at CRBN/PARP1 in human MDA-MB-231 cells assessed as induction of PARP1 degradation at 1 uM incubated for 4 hrs by western blot analysis; format: cell-based
Target sequence in this assay (P09874 2-1014 limits assumed): as the sequence (P09874 2-1014 limits assumed) above
Target sequence in this assay (Q96SW2 whole entry partner): as the sequence (Q96SW2 whole entry) above

[34] = molecular target: T1, Protein cereblon/Poly [ADP-ribose] polymerase 1; experiment: PROTAC activity at CRBN/PARP1 in human MDA-MB-231 cells assessed as induction of PARP1 degradation at 0.12 to 4 uM incubated for 24 hrs by western blot analysis; format: cell-based; conditions: dose 0.12-4 µM, DDE = dose-dependent effect
Target sequence in this assay (P09874 2-1014 limits assumed): as the sequence (P09874 2-1014 limits assumed) above
Target sequence in this assay (Q96SW2 whole entry partner): as the sequence (Q96SW2 whole entry) above

Sequence of Poly [ADP-ribose] polymerase 1 (P09874 whole entry): as the sequence (P09874 whole entry) above

**Q.** For `O=C(CCCCCCCCCCC(=O)N1CCN(C(=O)c2cc(Cc3n[nH]c(=O)c4ccccc34)ccc2F)CC1)NCCNc1cccc2c1C(=O)N(C1CCC(=O)NC1=O)C2=O` (configuration not stated), which DC50 [1] is on record?
**A.** 0.00289 µM

**Q.** With `O=C1CCC(N2C(=O)c3cccc(NC(=O)CNCCCCCCCCCCC(=O)N4CCN(C(=O)c5cc(Cc6n[nH]c(=O)c7ccccc67)ccc5F)CC4)c3C2=O)C(=O)N1` (configuration not stated) as the compound, how does the IC50 [2] read?
**A.** 0.00295 µM

**Q.** What about the Activity [3] of the same compound?
**A.** 36.68%

**Q.** And the Activity [4]?
**A.** Active

**Q.** And the Activity [5]?
**A.** Active

**Q.** What about the DC50 [1] of the same compound?
**A.** 3.2 µM

**Q.** And the Activity [6]?
**A.** 30.97%

**Q.** What about the Activity [7] of the same compound?
**A.** Dde

**Q.** And the Activity [8]?
**A.** 32.03%

**Q.** What about the IC50 [9] of the same compound?
**A.** 0.031 µM

**Q.** What about the Activity [10] of the same compound?
**A.** 30.55%

**Q.** What about the Activity [11] of the same compound?
**A.** 33.02%

**Q.** And the Activity [12]?
**A.** Active

**Q.** And the Activity [13]?
**A.** 25.81%

**Q.** And the Activity [14]?
**A.** Active

**Q.** What about the Activity [15] of the same compound?
**A.** Active

**Q.** And the DC50 [16]?
**A.** 0.053 µM

**Q.** And the Activity [17]?
**A.** 37.16%

**Q.** What about the Activity [18] of the same compound?
**A.** Active

**Q.** What about the Activity [19] of the same compound?
**A.** 41.92%

**Q.** And the Activity [20]?
**A.** Active

**Q.** And the Activity [21]?
**A.** Active

**Q.** What about the Activity [22] of the same compound?
**A.** Toxic

**Q.** And the IC50 [23]?
**A.** 3.92 µM

**Q.** What about the Activity [24] of the same compound?
**A.** 32.14%

**Q.** And the Activity [25]?
**A.** 28.41%

**Q.** What about the IC50 [26] of the same compound?
**A.** 2.32 µM

**Q.** And the Activity [27]?
**A.** 29.56%

**Q.** What about the Activity [28] of the same compound?
**A.** 30.47%

**Q.** And the IC50 [29]?
**A.** 0.077 µM

**Q.** What about the Activity [30] of the same compound?
**A.** 32.48%

**Q.** And the Activity [31]?
**A.** 35.58%

**Q.** And the Activity [32]?
**A.** 37.11%

**Q.** And the Activity [33]?
**A.** 90%

**Q.** Which IC50 [9] does the source give for `O=C1CCC(N2C(=O)c3cccc(NC(=O)CNCCCCCCCC(=O)N4CCN(C(=O)c5cc(Cc6n[nH]c(=O)c7ccccc67)ccc5F)CC4)c3C2=O)C(=O)N1` (configuration not stated) here?
**A.** 0.29 µM

**Q.** What about the Activity [18] of the same compound?
**A.** Active

**Q.** And the IC50 [23]?
**A.** 10.6 µM

**Q.** And the IC50 [26]?
**A.** 7.75 µM

**Q.** What about the IC50 [29] of the same compound?
**A.** 0.65 µM

**Q.** How did the IC50 [9] turn out when `O=C1CCC(N2C(=O)c3cccc(NC(=O)CNCCC(=O)N4CCN(C(=O)c5cc(Cc6n[nH]c(=O)c7ccccc67)ccc5F)CC4)c3C2=O)C(=O)N1` (configuration not stated) was run?
**A.** > 10 µM

**Q.** And the IC50 [23]?
**A.** > 20 µM

**Q.** And the IC50 [26]?
**A.** > 20 µM

**Q.** And the IC50 [29]?
**A.** > 10 µM

**Q.** What does the source list for `O=C1CCC(N2C(=O)c3cccc(NC(=O)CNCCCC(=O)N4CCN(C(=O)c5cc(Cc6n[nH]c(=O)c7ccccc67)ccc5F)CC4)c3C2=O)C(=O)N1` (configuration not stated)?
**A.** IC50 [9]: 6.8 µM; IC50 [23]: > 20 µM; IC50 [26]: > 20 µM; IC50 [29]: 8.64 µM

**Q.** For `O=C1CCC(N2C(=O)c3cccc(NC(=O)CNCCCCCCCCC(=O)N4CCN(C(=O)c5cc(Cc6n[nH]c(=O)c7ccccc67)ccc5F)CC4)c3C2=O)C(=O)N1` (configuration not stated), which IC50 [9] is on record?
**A.** 0.21 µM

**Q.** And the Activity [18]?
**A.** Active

**Q.** What about the IC50 [23] of the same compound?
**A.** 7.54 µM

**Q.** And the IC50 [26]?
**A.** 6.08 µM

**Q.** What about the IC50 [29] of the same compound?
**A.** 0.59 µM

**Q.** How did the IC50 [9] turn out when `CN1C(=O)CCC(N2C(=O)c3cccc(NC(=O)CNCCCCCCCCCCC(=O)N4CCN(C(=O)c5cc(Cc6n[nH]c(=O)c7ccccc67)ccc5F)CC4)c3C2=O)C1=O` (configuration not stated) was run?
**A.** 0.053 µM

**Q.** And the Activity [34]?
**A.** Dde

**Q.** What about the IC50 [23] of the same compound?
**A.** 4.58 µM

**Q.** What about the IC50 [26] of the same compound?
**A.** 4.07 µM

**Q.** And the IC50 [29]?
**A.** 0.16 µM
